Laboratory results: ChEMBL document CHEMBL1201862, “PubChem BioAssay data set” (2004)
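All cell lines were grown in 96-well plates and treated with compound for 48 hours. At the GI50, growth is halved.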 Activity calls are given as the source filed them. Rule as the data show it: active = GI50 up to about 1.1 µM and inactive = higher.

Assays:
Test in all cases: DTP human tumour cell line panel, 48 h
[1] = test system: NCI-H23
[2] = test system: DU-145
[3] = test system: CCRF-CEM
[4] = test system: ACHN
[5] = test system: MOLT-4
[6] = test system: MDA-MB-231
[7] = test system: NCI-H460
[8] = test system: SF-539
[9] = test system: MCF7
[10] = test system: NCI-H226
[11] = test system: SNB-75
[12] = test system: OVCAR-8
[13] = test system: HCT-116
[14] = test system: UACC-62
[15] = test system: SF-268
[16] = test system: Hs-578T
[17] = test system: SNB-19
[18] = test system: HCT-15
[19] = test system: HT-29
[20] = test system: LOX IMVI

Row | SMILES | GI50 [1] | GI50 [2] | GI50 [3] | GI50 [4] | GI50 [5] | GI50 [6] | GI50 [7] | GI50 [8] | GI50 [9] | GI50 [10] | GI50 [11] | GI50 [12] | GI50 [13] | GI50 [14] | GI50 [15] | GI50 [16] | GI50 [17] | GI50 [18] | GI50 [19] | GI50 [20]
1 | Cc1cc(C)c2nc3c(c(C(O)C4CCCCN4)c2c1)CC/C3=C\c1ccc(Cl)cc1 (stereo unspecified) | 85.9 µM (inactive) | 81.1 µM (inactive) | 25.4 µM (inactive) | 78.3 µM (inactive) | 26.7 µM (inactive) | 73.3 µM (inactive) | 32.6 µM (inactive) | > 100 µM (inactive) | 46.6 µM (inactive) | > 100 µM (inactive) | 54 µM (inactive) | 58.6 µM (inactive) | 32 µM (inactive) | 65 µM (inactive) | > 100 µM (inactive) | > 100 µM (inactive) | > 100 µM (inactive) | 58.7 µM | 30.4 µM (inactive) | 
2 | c1ccc2c3c([nH]c2c1)C1CCCN1CC3 (stereo unspecified) | > 10 µM (inactive) | > 10 µM (inactive) | > 10 µM (inactive) | > 10 µM (inactive) | > 10 µM (inactive) | > 10 µM (inactive) | > 10 µM (inactive) | > 10 µM (inactive) | > 10 µM (inactive) | > 10 µM (inactive) | > 10 µM (inactive) | > 10 µM (inactive) |  |  | > 10 µM (inactive) | > 10 µM (inactive) | > 10 µM (inactive) | > 10 µM | > 10 µM (inactive) | > 10 µM (inactive)
3 | N=C(N)N/N=C/c1nc2sccn2c1[N+](=O)[O-] | 18.1 µM (inactive) | 22.3 µM (inactive) |  | 60.3 µM (inactive) |  | 26.2 µM (inactive) | 18.5 µM (inactive) | 36.8 µM (inactive) | 18 µM (inactive) | 81.1 µM (inactive) | 11.3 µM (inactive) | 34 µM (inactive) | 22.4 µM (inactive) | 30.9 µM (inactive) | 33.3 µM (inactive) | 24.7 µM (inactive) | 35.2 µM (inactive) | 47.8 µM | 26.2 µM (inactive) | 21.4 µM (inactive)
4 | CCC(C)[C@@H](NCc1ccccc1)[C@H](OCc1ccccc1)[C@@H]1COC(C)(C)O1 (stereo partly specified) | 18.8 µM (inactive) | 27.4 µM (inactive) | 27.1 µM (inactive) | 20.9 µM (inactive) | 25.5 µM (inactive) | 17.1 µM (inactive) |  |  | 21.2 µM (inactive) | 14.8 µM (inactive) | 32.6 µM (inactive) | 20.5 µM (inactive) | 13 µM (inactive) | 20.6 µM (inactive) | 22.8 µM (inactive) | 21.1 µM (inactive) | 17 µM (inactive) | 15.7 µM | 10.7 µM (inactive) | 18 µM (inactive)
5 | O=C(O)c1ccc([N+](=O)[O-])c2cc3cnccc3nc12 | 24.6 µM (inactive) | 33 µM (inactive) | 2.31 µM (inactive) |  | 3.91 µM (inactive) | 19.4 µM (inactive) | 38.2 µM (inactive) |  | 19.3 µM (inactive) | 30.3 µM (inactive) | 19.3 µM (inactive) | 22.4 µM (inactive) | 18.4 µM (inactive) | 12.4 µM (inactive) |  | 35 µM (inactive) | > 10 µM (inactive) | 20.1 µM | 22.6 µM (inactive) | 
6 | COc1ccc(CN(Cc2ccc(OC)cc2)C(=O)CC2(O)CCc3ccccc3C2)cc1 (stereo unspecified) | > 100 µM (inactive) | > 100 µM (inactive) | 16.6 µM (inactive) | 49.8 µM (inactive) | 7.89 µM (inactive) | > 100 µM (inactive) | 44 µM (inactive) | > 100 µM (inactive) | 41.2 µM (inactive) | 15.1 µM (inactive) | 30.1 µM (inactive) | 37 µM (inactive) | 38 µM (inactive) | 50.9 µM (inactive) |  | 40.3 µM (inactive) | > 100 µM (inactive) | 54.6 µM | 37.4 µM (inactive) | 52.4 µM (inactive)
7 | Cc1cccc(CNNC(=O)c2cc[n+]([BH2-]C#N)cc2)c1 | 18.6 µM (inactive) | 24.7 µM (inactive) | 23.9 µM (inactive) | 42.6 µM (inactive) | 28.2 µM (inactive) | 20.6 µM (inactive) | 36.5 µM (inactive) |  | 36.5 µM (inactive) | 23.9 µM (inactive) | 21.7 µM (inactive) | 24.6 µM (inactive) | 23.3 µM (inactive) | 62.7 µM (inactive) | 26.7 µM (inactive) | 21.6 µM (inactive) | 48.2 µM (inactive) | 21.4 µM | 29.3 µM (inactive) | 20.1 µM (inactive)
8 | O=c1c2c3c(sc2nc2n1N=C(c1ccc(Cl)cc1)CS2)CCCC3 | > 100 µM (inactive) | > 100 µM (inactive) | > 100 µM (inactive) | > 100 µM (inactive) | > 100 µM (inactive) | > 100 µM (inactive) | > 100 µM (inactive) | > 100 µM (inactive) | > 100 µM (inactive) | > 100 µM (inactive) | > 100 µM (inactive) | > 100 µM (inactive) | > 100 µM (inactive) | > 100 µM (inactive) | > 100 µM (inactive) | > 100 µM (inactive) |  | > 100 µM | > 100 µM (inactive) | > 100 µM (inactive)
